In ChEMBL document CHEMBL2375215, “Phenylpropiophenone derivatives as potential anticancer agents: synthesis, biological evaluation and quantitative structure-activity relationship study” (Eur J Med Chem, 2013):

Columns and labels:
MCF7 [1] = assay: Cytotoxicity against human MCF7 cells assessed as decrease in cell survival after 72 hrs by MTT assay; assay type: functional, cell-based; conditions: for IC50: MCF7, 72 h
[2] = Selectivity index, ratio of IC50 for human PBMC to IC50 for human Fem-X cells
K562 [3] = assay: Selectivity index, ratio of IC50 for PHA-stimulated human PBMC to IC50 for human K562 cells
HeLa [4] = assay: Selectivity index, ratio of IC50 for PHA-stimulated human PBMC to IC50 for human HeLa cells
PC-3 [5] = assay: Selectivity index, ratio of IC50 for PHA-stimulated human PBMC to IC50 for human PC3 cells
MCF7 [6] = assay: Selectivity index, ratio of IC50 for PHA-stimulated human PBMC to IC50 for human MCF7 cells
HeLa [7] = assay: Cytotoxicity against human HeLa cells assessed as decrease in cell survival after 72 hrs by MTT assay; assay type: functional, cell-based
PC-3 [8] = assay: Selectivity index, ratio of IC50 for human PBMC to IC50 for human PC3 cells
MCF7 [9] = assay: Selectivity index, ratio of IC50 for human PBMC to IC50 for human MCF7 cells
K562 [10] = assay: Selectivity index, ratio of IC50 for human PBMC to IC50 for human K562 cells
[11] = Selectivity index, ratio of IC50 for PHA-stimulated human PBMC to IC50 for human Fem-X cells; assay type: functional
PBMC [12] = assay: Cytotoxicity against PHA-stimulated human PBMC assessed as decrease in cell survival after 72 hrs by MTT assay; assay type: cell-based
K562 [13] = assay: Cytotoxicity against human K562 cells assessed as decrease in cell survival after 72 hrs by MTT assay; assay type: functional, cell-based; conditions: for IC50: K562, 72 h
PBMC [14] = assay: Cytotoxicity against human PBMC assessed as decrease in cell survival after 72 hrs by MTT assay; assay type: cell-based
LS174 = assay: (§1) Cytotoxicity against human LS174 cells assessed as decrease in cell survival after 72 hrs by MTT assay; assay type: functional, cell-based
[15] = as §1; assay type: functional, cell-based; conditions: LS174, 72 h
PC-3 [16] = assay: Cytotoxicity against human PC3 cells assessed as decrease in cell survival after 72 hrs by MTT assay; assay type: functional, cell-based; conditions: for IC50: PC-3, 72 h
Fem-X = assay: (§2) Cytotoxicity against human Fem-X cells assessed as decrease in cell survival after 72 hrs by MTT assay; assay type: functional, cell-based
[17] = as §2; assay type: functional, cell-based
[18] = Selectivity index, ratio of IC50 for PHA-stimulated human PBMC to IC50 for human LS174 cells
HeLa [19] = assay: Selectivity index, ratio of IC50 for human PBMC to IC50 for human HeLa cells
[20] = Selectivity index, ratio of IC50 for human PBMC to IC50 for human LS174 cells

SMILES: CCCNCC(O)COc1ccccc1C(=O)CCc1ccc(F)cc1.Cl (racemic)
- Activity (MCF7 [1]): Dose-dependent effect
- IC50 (MCF7 [1]; read-out: IC50): 33 µM
- IC50 (MCF7 [1]; read-out: pIC50 (converted)): 33 µM
- Ratio IC50 [2]: 6.28
- Ratio IC50 (K562 [3]): 1.76
- Ratio IC50 (HeLa [4]): 3.03
- Ratio IC50 (PC-3 [5]): 1.53
- Ratio IC50 (MCF7 [6]): 1.48
- Activity (HeLa [7]): Dose-dependent effect
- IC50 (HeLa [7]; read-out: IC50): 16.1 µM
- IC50 (HeLa [7]; read-out: pIC50 (converted)): 16.1 µM
- Ratio IC50 (PC-3 [8]): 3.35
- Ratio IC50 (MCF7 [9]): 1.83
- Ratio IC50 (K562 [10]): 2.18
- Ratio IC50 [11]: 5.08
- IC50 (PBMC [12]): 48.8 µM
- Activity (K562 [13]): Dose-dependent effect
- IC50 (K562 [13]; read-out: IC50): 27.7 µM
- IC50 (K562 [13]; read-out: pIC50 (converted)): 27.7 µM
- IC50 (PBMC [14]): 60.3 µM
- Activity (LS174): Dose-dependent effect
- IC50 ([15]; read-out: IC50): 23.2 µM
- IC50 ([15]; read-out: pIC50 (converted)): 23.2 µM
- Activity (PC-3 [16]): Dose-dependent effect
- IC50 (PC-3 [16]; read-out: IC50): 31.9 µM
- IC50 (PC-3 [16]; read-out: pIC50 (converted)): 31.9 µM
- Activity (Fem-X): Dose-dependent effect
- IC50 ([17]; read-out: IC50): 9.6 µM
- IC50 ([17]; read-out: pIC50 (converted)): 9.6 µM
- Ratio IC50 [18]: 2.1
- Ratio IC50 (HeLa [19]): 3.75
- Ratio IC50 [20]: 2.6

SMILES: CCCNCC(O)COc1ccccc1C(=O)CCc1ccccc1C(F)(F)F.Cl (racemic)
- Activity (MCF7 [1]): Dose-dependent effect
- IC50 (MCF7 [1]; read-out: IC50): 9.7 µM
- IC50 (MCF7 [1]; read-out: pIC50 (converted)): 9.7 µM
- Ratio IC50 [2]: 2.76
- Ratio IC50 (K562 [3]): 4.03
- Ratio IC50 (HeLa [4]): 5.24
- Ratio IC50 (PC-3 [5]): 1.52
- Ratio IC50 (MCF7 [6]): 3.66
- Activity (HeLa [7]): Dose-dependent effect
- IC50 (HeLa [7]; read-out: IC50): 6.78 µM
- IC50 (HeLa [7]; read-out: pIC50 (converted)): 6.78 µM
- Ratio IC50 (PC-3 [8]): 1.91
- Ratio IC50 (MCF7 [9]): 4.58
- Ratio IC50 (K562 [10]): 5.05
- Ratio IC50 [11]: 2.2
- IC50 (PBMC [12]): 35.5 µM
- Activity (K562 [13]): Dose-dependent effect
- IC50 (K562 [13]; read-out: IC50): 8.8 µM
- IC50 (K562 [13]; read-out: pIC50 (converted)): 8.8 µM
- IC50 (PBMC [14]): 44.4 µM
- Activity (LS174): Dose-dependent effect
- IC50 ([15]; read-out: IC50): 18.6 µM
- IC50 ([15]; read-out: pIC50 (converted)): 18.6 µM
- Activity (PC-3 [16]): Dose-dependent effect
- IC50 (PC-3 [16]; read-out: IC50): 23.3 µM
- IC50 (PC-3 [16]; read-out: pIC50 (converted)): 23.3 µM
- Activity (Fem-X): Dose-dependent effect
- IC50 ([17]; read-out: IC50): 16.1 µM
- IC50 ([17]; read-out: pIC50 (converted)): 16.1 µM
- Ratio IC50 [18]: 1.91
- Ratio IC50 (HeLa [19]): 6.55
- Ratio IC50 [20]: 2.39

SMILES: Cc1ccccc1/C=C/C(=O)c1ccccc1O
- Activity (MCF7 [1]): Dose-dependent effect
- IC50 (MCF7 [1]; read-out: IC50): 37.7 µM
- IC50 (MCF7 [1]; read-out: pIC50 (converted)): 37.7 µM
- Activity (HeLa [7]): Dose-dependent effect
- IC50 (HeLa [7]; read-out: IC50): 14.7 µM
- IC50 (HeLa [7]; read-out: pIC50 (converted)): 14.7 µM
- Activity (K562 [13]): Dose-dependent effect
- IC50 (K562 [13]; read-out: IC50): 18.5 µM
- IC50 (K562 [13]; read-out: pIC50 (converted)): 18.5 µM
- Activity (LS174): Dose-dependent effect
- IC50 ([15]; read-out: IC50): 48.8 µM
- IC50 ([15]; read-out: pIC50 (converted)): 48.8 µM
- Activity (PC-3 [16]): Dose-dependent effect
- IC50 (PC-3 [16]; read-out: IC50): 19.2 µM
- IC50 (PC-3 [16]; read-out: pIC50 (converted)): 19.2 µM
- Activity (Fem-X): Dose-dependent effect
- IC50 ([17]; read-out: IC50): 22.4 µM
- IC50 ([17]; read-out: pIC50 (converted)): 22.4 µM

SMILES: CCCNCC(O)COc1ccccc1C(=O)CCc1ccccc1F.Cl (racemic)
- Activity (MCF7 [1]): Dose-dependent effect
- IC50 (MCF7 [1]; read-out: IC50): 18.5 µM
- IC50 (MCF7 [1]; read-out: pIC50 (converted)): 18.5 µM
- Ratio IC50 [2]: 1.24
- Ratio IC50 (K562 [3]): 1.28
- Ratio IC50 (HeLa [4]): 2.93
- Ratio IC50 (PC-3 [5]): 1.04
- Ratio IC50 (MCF7 [6]): 2.6
- Activity (HeLa [7]): Dose-dependent effect
- IC50 (HeLa [7]; read-out: IC50): 16.4 µM
- IC50 (HeLa [7]; read-out: pIC50 (converted)): 16.4 µM
- Ratio IC50 (PC-3 [8]): 1.02
- Ratio IC50 (MCF7 [9]): 2.57
- Ratio IC50 (K562 [10]): 1.26
- Ratio IC50 [11]: 1.26
- IC50 (PBMC [12]): 48.1 µM
- Activity (K562 [13]): Dose-dependent effect
- IC50 (K562 [13]; read-out: IC50): 37.6 µM
- IC50 (K562 [13]; read-out: pIC50 (converted)): 37.6 µM
- IC50 (PBMC [14]): 47.5 µM
- Activity (LS174): Dose-dependent effect
- IC50 ([15]; read-out: IC50): 72.2 µM
- IC50 ([15]; read-out: pIC50 (converted)): 72.2 µM
- Activity (PC-3 [16]): Dose-dependent effect
- IC50 (PC-3 [16]; read-out: IC50): 46.4 µM
- IC50 (PC-3 [16]; read-out: pIC50 (converted)): 46.4 µM
- Activity (Fem-X): Dose-dependent effect
- IC50 ([17]; read-out: IC50): 38.2 µM
- IC50 ([17]; read-out: pIC50 (converted)): 38.2 µM
- Ratio IC50 [18]: 0.67
- Ratio IC50 (HeLa [19]): 2.89
- Ratio IC50 [20]: 0.66

SMILES: O=C(/C=C/c1ccc(F)cc1)c1ccccc1O
- Activity (MCF7 [1]): Dose-dependent effect
- IC50 (MCF7 [1]; read-out: IC50): 26 µM
- IC50 (MCF7 [1]; read-out: pIC50 (converted)): 26 µM
- Activity (HeLa [7]): Dose-dependent effect
- IC50 (HeLa [7]; read-out: IC50): 22.6 µM
- IC50 (HeLa [7]; read-out: pIC50 (converted)): 22.6 µM
- Activity (K562 [13]): Dose-dependent effect
- IC50 (K562 [13]; read-out: IC50): 17.9 µM
- IC50 (K562 [13]; read-out: pIC50 (converted)): 17.9 µM
- Activity (LS174): Dose-dependent effect
- IC50 ([15]; read-out: IC50): 35.3 µM
- IC50 ([15]; read-out: pIC50 (converted)): 35.3 µM
- Activity (PC-3 [16]): Dose-dependent effect
- IC50 (PC-3 [16]; read-out: IC50): 30.4 µM
- IC50 (PC-3 [16]; read-out: pIC50 (converted)): 30.4 µM
- Activity (Fem-X): Dose-dependent effect
- IC50 ([17]; read-out: IC50): 21.8 µM
- IC50 ([17]; read-out: pIC50 (converted)): 21.8 µM

SMILES: Cc1ccc(/C=C/C(=O)c2ccccc2O)cc1
- Activity (MCF7 [1]): Dose-dependent effect
- IC50 (MCF7 [1]; read-out: IC50): 33.9 µM
- IC50 (MCF7 [1]; read-out: pIC50 (converted)): 33.9 µM
- Activity (HeLa [7]): Dose-dependent effect
- IC50 (HeLa [7]; read-out: IC50): 20.6 µM
- IC50 (HeLa [7]; read-out: pIC50 (converted)): 20.6 µM
- Activity (K562 [13]): Dose-dependent effect
- IC50 (K562 [13]; read-out: IC50): 18.9 µM
- IC50 (K562 [13]; read-out: pIC50 (converted)): 18.9 µM
- Activity (LS174): Dose-dependent effect
- IC50 ([15]; read-out: IC50): 41.2 µM
- IC50 ([15]; read-out: pIC50 (converted)): 41.2 µM
- Activity (PC-3 [16]): Dose-dependent effect
- IC50 (PC-3 [16]; read-out: IC50): 27.6 µM
- IC50 (PC-3 [16]; read-out: pIC50 (converted)): 27.6 µM
- Activity (Fem-X): Dose-dependent effect
- IC50 ([17]; read-out: IC50): 21.2 µM
- IC50 ([17]; read-out: pIC50 (converted)): 21.2 µM

SMILES: O=C(/C=C/c1ccccc1Cl)c1ccccc1O
- Activity (MCF7 [1]): Dose-dependent effect
- IC50 (MCF7 [1]; read-out: IC50): 29.8 µM
- IC50 (MCF7 [1]; read-out: pIC50 (converted)): 29.8 µM
- Activity (HeLa [7]): Dose-dependent effect
- IC50 (HeLa [7]; read-out: IC50): 11.2 µM
- IC50 (HeLa [7]; read-out: pIC50 (converted)): 11.2 µM
- Activity (K562 [13]): Dose-dependent effect
- IC50 (K562 [13]; read-out: IC50): 9.8 µM
- IC50 (K562 [13]; read-out: pIC50 (converted)): 9.8 µM
- Activity (LS174): Dose-dependent effect
- IC50 ([15]; read-out: IC50): 32.2 µM
- IC50 ([15]; read-out: pIC50 (converted)): 32.2 µM
- Activity (PC-3 [16]): Dose-dependent effect
- IC50 (PC-3 [16]; read-out: IC50): 20.1 µM
- IC50 (PC-3 [16]; read-out: pIC50 (converted)): 20.1 µM
- Activity (Fem-X): Dose-dependent effect
- IC50 ([17]; read-out: IC50): 10.4 µM
- IC50 ([17]; read-out: pIC50 (converted)): 10.4 µM
